Source: PMC10484855, “Production, purification, and characterization of cold-active lipase from the psychrotroph Pseudomonas sp. A6” (Brazilian Journal of Microbiology, 2023)

System: T1, cold-active lipase from Pseudomonas sp. A6
T1 construct: 65 kDa by SDS-PAGE
Assay: spectrophotometric p-nitrophenol release at […] nm; Lineweaver-Burk plot
Format: biochemical
Settings: 10 °C; phosphate buffer; pH of the Km assay not stated; unit printed ambiguously as 'm mol'

CCCCCCCCCCCC(=O)Oc1ccc([N+](=O)[O-])cc1 [p-nitrophenyl laurate]
Km: 6.6 * 10^−4 m mol L^−1
